Laboratory results reported in patent publication US12414915B2, “Liquid naloxone spray” (HIKMA PHARMACEUTICALS USA INC., priority 2023, dated 2025).
Where two headings read alike, the source gives them in different places.

Test: Phase I five-way crossover: intranasal and sublingual naloxone spray 8 mg and 16 mg versus 0.4 mg intramuscular, plasma concentrations
Assay type: in vivo, human subjects
Conditions: for concentration at 0.03 h / concentration at 0.07 h / concentration at 0.1 h / concentration at 0.13 h / concentration at 0.17 h / concentration at 0.5 h / concentration at 1 h / concentration at […] / Cmax / AUC: human, plasma; for concentration at 0.03 h / concentration at 0.07 h / concentration at 0.1 h / concentration at 0.13 h / concentration at 0.17 h / concentration at 0.5 h / concentration at 1 h / concentration at […]: mean ± SD; for concentration at […]: read-out: Conc. @ 0.25 h; for AUC: time-zero to 1 hour post dose
Description: 145 subjects were randomly assigned to one of five groups including 8 milligrams sublingual dose, 16 milligrams sublingual dose, 8 milligrams intranasal dose, 16 milligrams intranasal dose and 0.4 milligram naloxone dose. Plasma concentrations were taken at pre-dose, 0.03, 0.07, 0.1, 0.13, 0.17, 0.25, 0.5, 1, 2 4, 8 and 12 hours' post-dose.

SMILES: C=CCN1CC[C@]23c4c5ccc(O)c4O[C@H]2C(=O)CC[C@@]3(O)[C@H]1C5 [naloxone, Naloxone]
- mean plasma concentration, 16 mg intranasal compared with 16 mg sublingual (2 and 4 hours post-dose): significantly lower
- plasma concentration, intranasal compared with sublingual administration (all time points up to 1 hour after administration): significantly greater plasma concentration
- concentration at 0.03 h (intramuscular, 0.4 mg IM): 0.15 ± 0.29 ng/mL
- concentration at 0.07 h (intramuscular, 0.4 mg IM): 0.36 ± 0.38 ng/mL
- concentration at 0.1 h (intramuscular, 0.4 mg IM): 0.51 ± 0.41 ng/mL
- concentration at 0.13 h (intramuscular, 0.4 mg IM): 0.58 ± 0.39 ng/mL
- concentration at 0.17 h (intramuscular, 0.4 mg IM): 0.63 ± 0.36 ng/mL
- concentration at 0.5 h (intramuscular, 0.4 mg IM): 0.62 ± 0.22 ng/mL
- concentration at 1 h (intramuscular, 0.4 mg IM): 0.51 ± 0.16 ng/mL
- concentration at […] (intramuscular, 0.4 mg IM): 0.69 ± 0.4 ng/mL
- concentration at 0.03 h (other: intranasal, 8 mg IN): 6.19 ± 14.5 ng/mL
- concentration at 0.07 h (other: intranasal, 8 mg IN): 13.9 ± 19.1 ng/mL
- concentration at 0.1 h (other: intranasal, 8 mg IN): 18.8 ± 15.6 ng/mL
- concentration at 0.13 h (other: intranasal, 8 mg IN): 20.5 ± 13.1 ng/mL
- concentration at 0.17 h (other: intranasal, 8 mg IN): 20 ± 10.7 ng/mL
- concentration at 0.5 h (other: intranasal, 8 mg IN): 9.88 ± 4.42 ng/mL
- concentration at 1 h (other: intranasal, 8 mg IN): 6.29 ± 2.7 ng/mL
- concentration at […] (other: intranasal, 8 mg IN): 16.5 ± 6.71 ng/mL
- concentration at 0.03 h (other: intranasal, 16 mg IN): 9.29 ± 14.3 ng/mL
- concentration at 0.07 h (other: intranasal, 16 mg IN): 29.7 ± 28 ng/mL
- concentration at 0.1 h (other: intranasal, 16 mg IN): 46.3 ± 36.6 ng/mL
- concentration at 0.13 h (other: intranasal, 16 mg IN): 49.3 ± 34 ng/mL
- concentration at 0.17 h (other: intranasal, 16 mg IN): 45.8 ± 24.6 ng/mL
- concentration at 0.5 h (other: intranasal, 16 mg IN): 22.4 ± 8.19 ng/mL
- concentration at 1 h (other: intranasal, 16 mg IN): 14.1 ± 5.61 ng/mL
- concentration at […] (other: intranasal, 16 mg IN): 35 ± 13.2 ng/mL
- concentration at 0.03 h (other: sublingual, 8 mg SL): 0.18 ± 0.29 ng/mL
- concentration at 0.07 h (other: sublingual, 8 mg SL): 0.62 ± 0.96 ng/mL
- concentration at 0.1 h (other: sublingual, 8 mg SL): 0.88 ± 0.94 ng/mL
- concentration at 0.13 h (other: sublingual, 8 mg SL): 1.17 ± 1.13 ng/mL
- concentration at 0.17 h (other: sublingual, 8 mg SL): 1.54 ± 1.1 ng/mL
- concentration at 0.5 h (other: sublingual, 8 mg SL): 2.03 ± 1.28 ng/mL
- concentration at 1 h (other: sublingual, 8 mg SL): 1.61 ± 0.85 ng/mL
- concentration at […] (other: sublingual, 8 mg SL): 1.98 ± 1.29 ng/mL
- concentration at 0.03 h (other: sublingual, 16 mg SL): 0.52 ± 0.8 ng/mL
- concentration at 0.07 h (other: sublingual, 16 mg SL): 1.69 ± 1.85 ng/mL
- concentration at 0.1 h (other: sublingual, 16 mg SL): 2.31 ± 2.08 ng/mL
- concentration at 0.13 h (other: sublingual, 16 mg SL): 3.16 ± 3.39 ng/mL
- concentration at 0.17 h (other: sublingual, 16 mg SL): 3.63 ± 3.83 ng/mL
- concentration at 0.5 h (other: sublingual, 16 mg SL): 3.94 ± 2.96 ng/mL
- concentration at 1 h (other: sublingual, 16 mg SL): 2.96 ± 1.66 ng/mL
- concentration at […] (other: sublingual, 16 mg SL): 4.39 ± 4.24 ng/mL
- Cmax (other: intranasal, 8 mg IN): 20.5 ng/mL
- AUC (other: intranasal, 8 mg IN): 11.2 ng·h/mL
- Cmax (other: intranasal, 16 mg IN): 49.3 ng/mL
- AUC (other: intranasal, 16 mg IN): 24.9 ng·h/mL
- Cmax (other: sublingual, 8 mg SL): 2.03 ng/mL
- AUC (other: sublingual, 8 mg SL): 1.68 ng·h/mL
- Cmax (other: sublingual, 16 mg SL): 4.39 ng/mL
- AUC (other: sublingual, 16 mg SL): 3.42 ng·h/mL
- Cmax (0.4 mg IM): 0.69 ng/mL
- AUC (0.4 mg IM): 0.57 ng·h/mL
- plasma concentration compared with 0.4 mg intramuscular administration (intranasal or sublingual, 8 mg or 16 mg, all time points up to 1 hour, fasted): significantly greater plasma concentrations
